From patent publication US20210198201A1, “Orally Active Melanocortin Receptor-4 Compounds” (Palatin Technologies, Inc., priority 2018, published 2021)

What was measured:
[1] = target: T1, MC1r (Homo sapiens, UniProt Q01726); assay: Competitive inhibition binding assay, MC1r; details: binding studies
T1 construct: expressed in transfected cells; host or cells: HEK-293 (membrane homogenates)
Description: (§1) A competitive inhibition binding assay is performed using membrane homogenates prepared from HEK-293 cells that express recombinant hMC1ra, hMC4r, hMC3r, or hMC5r, and from B16-F10 mouse melanoma cells (containing endogenous MC1r). In the examples that follow, all values are for human recombinant receptors unless otherwise noted. Assays are performed in 96 well GF/B Millipore multiscreen filtration plates (MAFB NOB10) pre-coated with 0.5% bovine serum albumin (Fraction V). […] After incubation for 60 to 90 minutes at 37° C., the assay mixture is filtered and the membranes washed three times with ice-cold buffer. Filters are dried and counted in a gamma counter for bound radioactivity.
(§2) Maximal specific binding (100%) is defined as the difference in radioactivity (cpm) bound to cell membranes in the absence and presence of 1 μM NDP-α-MSH. […] Each assay is conducted in duplicate or triplicate and the actual mean values are described, with results less than 0% reported as 0%. Ki values for test compounds are determined using Graph-Pad Prism® curve-fitting software.

[2] = target: T2, mMC1r (Mus musculus, UniProt Q01727); assay: Binding of iodine-125 labeled NDP-α-MSH, B16-F1 cells, mMC1r
T2 construct: endogenous in cells; host or cells: B16-F1
T2 sequence (Q01727 whole entry): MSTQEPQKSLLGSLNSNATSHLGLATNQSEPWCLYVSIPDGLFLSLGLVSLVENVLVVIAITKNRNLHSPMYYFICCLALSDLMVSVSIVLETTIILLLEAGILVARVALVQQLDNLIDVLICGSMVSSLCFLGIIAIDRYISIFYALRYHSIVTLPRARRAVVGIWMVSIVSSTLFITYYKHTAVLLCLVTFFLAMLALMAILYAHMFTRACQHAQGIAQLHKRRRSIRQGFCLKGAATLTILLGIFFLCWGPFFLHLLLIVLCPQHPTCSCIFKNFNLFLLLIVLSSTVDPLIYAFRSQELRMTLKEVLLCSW
Description: (§3) Melanocortin receptor binding and function of Compound 7.1 was tested. Ki binding values (nM) were calculated utilizing the percent inhibit of the binding of iodine-125 labeled NDP-α-MSH against B16-F1 cells for mMC1r, and human recombinant CHO cells for hMC3r, hMC4r and hMC5r, with the inhibition constant calculated using the Cheng Prusoff equation. Functional results (EC50 and efficacy) were calculated utilizing cAMP assays with NDP-α-MSH for mMC1r, hMC3r and hMC4r, ACTH for hMC2r, and α-MSH for hMC5r for agonist measures, with the same target cells for melanocortin receptors mMC1r, hMC3r, hMC4r and hMC5r, and human recombinant Cloudman M3 cells for hMC2r.

[3] = target: T3, hMC3r (Homo sapiens, UniProt P41968); assay: Binding of iodine-125 labeled NDP-α-MSH, human recombinant CHO cells, hMC3r
T3 construct: expressed in transfected cells; host or cells: CHO
T3 sequence (P41968 whole entry): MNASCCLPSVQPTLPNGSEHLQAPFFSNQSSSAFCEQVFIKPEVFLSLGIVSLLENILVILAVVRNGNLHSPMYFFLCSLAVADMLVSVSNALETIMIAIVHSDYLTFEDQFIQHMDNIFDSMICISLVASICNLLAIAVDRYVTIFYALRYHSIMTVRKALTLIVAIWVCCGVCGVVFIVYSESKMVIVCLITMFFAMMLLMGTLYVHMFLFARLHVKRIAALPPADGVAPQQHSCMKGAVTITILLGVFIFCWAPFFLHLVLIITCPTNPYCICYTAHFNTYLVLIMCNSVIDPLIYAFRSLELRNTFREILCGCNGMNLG
Description: as §3

[4] = test system: C57BL/6 male DIO mice; assay: Body weight and food intake in vivo study in diet induced obese mice; set-up: species or system mouse
Description: Compound 7.1 was assessed in a body weight and food intake in vivo study in diet induced obese […] mice. C57BL/6 male DIO mice were utilized, that were 17 weeks of age on arrival. Animals were pre-conditioned on a high-fat diet for 11 weeks by Jackson Labs. […] Animals were single housed within a limited access rodent facility, and provided ad libitum with a commercial rodent diet and free access to drinking water. Animals were randomized into five groups, a vehicle group, three dose levels of compound 7.1 (3 mg/kg, 10 mg/kg and 30 mg/kg), and Peptide A, a positive control cyclic peptide of the formula Ac-Arg-cyclo(Orn-Asn-D-Phe-Arg-Trp-Glu)-NH2. Following three days of sham dosing, animals were dosed for three days, with vehicle or Compound 7.1 dosed orally once daily at within one hour of lights out in the AM, and Peptide A dosed by subcutaneous injection twice daily within one hour before lights out and six hours after lights out. Body weights were measured one hour prior to lights out, and feed weights were measured both one hour prior to lights out and six hours post lights out.
*p<0.05 vs. sham (vehicle control) using two-way ANOVA followed by Dunnett's post-test.
**p<0.01 vs sham (vehicle control) using two-way ANOVA followed by Dunnett's post-test.

[5] = Plasma concentrations following oral administration in Sprague-Dawley rats; type: in vivo, rat; details: oral 30 mg/kg
Description: Plasma samples were measured at 15 minutes (2 animals) and 30 minutes, 1 hour, 2 hours, 4 hours, 8 hours and 24 hours (3 animals) post oral administration.

[6] = test system: C57Bl/6 DIO mice; assay: Oral administration, feed intake and body weight in C57Bl/6 DIO mice (comparison with MC4r knockout); type: in vivo, mouse
Description: (§4) Feed intake and body weight was evaluated in MCr4 knockout (MC4r−/−) mice (Jackson Laboratories) compared to C57Bl/6 DIO mice. […] Feed weights were taken at time 0, 2, 6 and 24 hours post lights out. […] The change in body weight is shown in FIG. 4 starting on study day 5, the first day of administration of compound 7.1. […] Additionally, there was a statistically significant mean difference, 2.8%, 95% Cl (1.281, 4.253), and p value <0.0001 between DIO mice receiving compound 7.1 and MC4r (−/−) receiving compound 7.1.

[7] = test system: MC4r (−/−) mice; assay: Oral administration in MC4r knockout mice, feed intake and body weight; type: in vivo, mouse
Description: as §4

[8] = target: T4, MC4r (Homo sapiens, UniProt P32245); assay: Binding of iodine-125 labeled NDP-α-MSH, human recombinant CHO cells, hMC4r; set-up: expressed in transfected cells; host or cells: CHO
T4 sequence (P32245 whole entry): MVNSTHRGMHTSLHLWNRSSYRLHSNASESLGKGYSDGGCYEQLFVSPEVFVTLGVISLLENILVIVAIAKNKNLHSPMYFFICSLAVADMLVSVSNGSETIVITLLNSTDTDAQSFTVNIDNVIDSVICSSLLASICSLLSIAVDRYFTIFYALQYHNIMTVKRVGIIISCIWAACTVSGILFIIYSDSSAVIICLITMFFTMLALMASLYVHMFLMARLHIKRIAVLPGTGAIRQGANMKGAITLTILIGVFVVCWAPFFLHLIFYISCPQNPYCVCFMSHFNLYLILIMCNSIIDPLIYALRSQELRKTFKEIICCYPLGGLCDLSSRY
Description: as §3

[9] = target: T4, MC4r; assay: cAMP assay hMC4r (human recombinant CHO cells, NDP-α-MSH reference); type: cell-based; set-up: expressed in transfected cells; host or cells: CHO
Description: as §3

[10] = target: T4, MC4r; assay: Competitive inhibition binding assay, MC4r; set-up: expressed in transfected cells; host or cells: HEK-293 (membrane homogenates); details: binding studies
Description: as §1, §2
Competitive Binding Assay Using Eu-NDP-α-MSH. Alternatively, a competitive inhibition binding assay is performed employing Eu-NDP-α-MSH (PerkinElmer Life Sciences catalog No. AD0225) with determination by time-resolved fluorometry (TRF) of the lanthanide chelate. […] After incubation for 90 minutes at 37° C., the reaction was stopped by filtration over Acro Well 96-well filter plates (Pall Life Sciences). The filter plates were washed 4 times with 200 μL of ice-cold phosphate-buffered saline. DELFIA Enhancement solution (PerkinElmer Life Sciences) was added to each well. The plates were incubated on a shaker for 15 minutes and read at 340 nm excitation and 615 nm emission wavelengths. Each assay was conducted in duplicate and mean values were utilized. Ki values were determined by curve-fitting with Graph-Pad Prism® software using a one-site fixed-slope competition binding model.

T1 sequence (Q01726 whole entry): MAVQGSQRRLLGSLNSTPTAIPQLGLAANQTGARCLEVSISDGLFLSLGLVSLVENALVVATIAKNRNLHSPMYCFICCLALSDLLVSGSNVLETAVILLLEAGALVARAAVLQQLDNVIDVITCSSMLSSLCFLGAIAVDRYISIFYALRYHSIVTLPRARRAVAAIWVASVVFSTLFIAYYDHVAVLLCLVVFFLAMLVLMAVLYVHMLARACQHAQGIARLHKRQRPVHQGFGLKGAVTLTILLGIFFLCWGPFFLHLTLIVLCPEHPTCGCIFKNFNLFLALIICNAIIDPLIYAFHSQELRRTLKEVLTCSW

`CC(=O)N1CCC(N(CC(C)C)N2CCN(C(=O)[C@@H](Cc3ccc(Cl)cc3)NC(=O)C(C)(C)N)CC2)CC1` [Compound 7.1, N-[(1R)-2-[4-[(1-acetyl-4-piperidyl)-isobutyl-amino]piperazin-1-yl]-1-[(4-chlorophenyl)methyl]-2-oxo-ethyl]-2-amino-2-methyl-propanamide] gave a Ki [1] of 0.2 µM, a Ki [2] of 0.093 µM and a Ki [3] of 1.3 µM. The “effect on body weight (in words)” value ([4]; 3 mg/kg, day 3) was “body weight loss”, the “effect on feed intake at 24 hours post lights out (in words)” value ([4]; 30 mg/kg, entirety of the study, compared with sham animals) was “significantly inhibited feed intake” and the “effect on body weight (in words)” value ([4]; daily treatment at 10 mg/kg and 30 mg/kg, day 1 to 3) was “significant body weight loss”. For the same compound, the Tax [5] was 2 h, the Cmax ([5]; rat, plasma) was 0.78 µg/mL and the half-life ([5]; rat, plasma, read-out: terminal half-life (converted)) was 3.94 h. For the same compound, the “effect on body weight vs own vehicle group (in words)” value ([6]; 30 mg/kg two daily administrations via oral gavage) was “significant body weight loss”, the “food consumption vs vehicle only (in words)” value ([6]; 6 and 24 hour timepoints, 30 mg/kg twice daily oral gavage) was “significantly decreased” and the “notable mean percentage body weight change difference between treated group and vehicle (in words)” value ([7]; 30 mg/kg twice daily) was “not”. The “food consumption vs vehicle only (in words)” value ([7]; 30 mg/kg twice daily oral gavage) was “no differences”, the Ki [8] was 0.014 µM and the EC50 [9] was 0.006 µM. For the same compound, the Ki [10] was 0.005 µM.
